Assay results as given in patent publication US20060264460A1 (Wyeth, priority 2005, published 2006).

Each compound was assayed against T1, human Cot/Tpl2 kinase (Homo sapiens, UniProt P41279) (assay: Tpl2/Cot kinase assay: GST-MEK1 phosphorylation detected by ELISA (DELFIA Eu)). Details: 0.4 nM Tpl2, 35 nM GST-MEK1, 50 uM ATP, 1 h at 30° C.
T1 construct: human Cot/Tpl2 kinase construct encoding residues 30-398; 6His (N); made in house; host or cells: Sf9 insect cells, baculovirus system (BD Biosciences)
Type: biochemical
In short: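 Substrate phosphorylation (GST-MEK1 Ser217/221) quantified by DELFIA europium ELISA, yielding IC50 values. Reaction: 1 h at 30° C, pH 7.2 MOPS buffer, 50 uM ATP, 35 nM GST-MEK1, 0.4 nM monomeric His-Tpl2 purified from Sf9 cells, compounds at 1% final DMSO; stopped with EDTA.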

T1 sequence (P41279 30-398): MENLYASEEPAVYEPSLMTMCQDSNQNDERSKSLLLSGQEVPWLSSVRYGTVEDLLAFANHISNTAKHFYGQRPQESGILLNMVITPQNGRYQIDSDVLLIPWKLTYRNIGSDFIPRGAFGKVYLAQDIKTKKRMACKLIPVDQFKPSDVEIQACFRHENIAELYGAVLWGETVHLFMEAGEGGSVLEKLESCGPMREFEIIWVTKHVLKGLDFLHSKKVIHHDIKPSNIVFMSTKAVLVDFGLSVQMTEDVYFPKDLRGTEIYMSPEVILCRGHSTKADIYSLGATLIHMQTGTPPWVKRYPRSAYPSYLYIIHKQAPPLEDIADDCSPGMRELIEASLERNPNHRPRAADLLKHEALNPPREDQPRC

| SMILES | IC50 [µM] |
| --- | --- |
| Cc1nc2ccc(NCc3cnc[nH]3)cc2c(Nc2ccc(F)c(Cl)c2)c1C#N [Example 254, 4-[(3-chloro-4-fluorophenyl)amino]-6-[(1H-imidazol-5-ylmethyl)amino]-2-methylquinoline-3-carbonitrile] | 19.9 |
| N#Cc1cnc2c(Br)cc(NCCN3CCOCC3)cc2c1Nc1cccc(Cl)c1 [Example 69, 8-bromo-4-(3-chlorophenylamino)-6-(2-morpholinoethylamino)quinoline-3-carbonitrile] | 0.42 |
| CSc1cc(NCc2cnc[nH]2)cc2c(Nc3ccc(F)c(Cl)c3)c(C#N)cnc12 [Example 287, 4-[(3-chloro-4-fluorophenyl)amino]-6-[(1H-imidazol-5-ylmethyl)amino]-8-(methylthio)quinoline-3-carbonitrile] | 0.34 |
| N#Cc1cnc2ccc(NCc3c[nH]nc3-c3cccs3)cc2c1Nc1ccc(F)c(Cl)c1 [Example 35, 4-(3-Chloro-4-fluoro-phenylamino)-6-[(3-thiophen-2-yl-1H-pyrazol-4-ylmethyl)-amino]-quinoline-3-carbonitrile] | 1.8 |
| N#Cc1cnc2ccc(NCc3ccc(F)cc3)cc2c1Nc1ccc(F)c(Cl)c1 [Example 146, 6-(4-fluorobenzylamino)-4-(3-chloro-4-fluorophenylamino)quinoline-3-carbonitrile] | 5.3 |
| N#Cc1cnc2c(C(F)(F)F)cc(NCc3cccn3S(=O)(=O)c3ccccc3)cc2c1Nc1ccc(F)c(Cl)c1 [Example 237, 4-[(3-chloro-4-fluorophenyl)amino]-6-({[1-(phenylsulfonyl)-1H-pyrrol-2-yl]methyl}amino)-8-(trifluoromethyl)quinoline-3-carbonitrile] | 24.8 |
| CC(C)(C)S(=O)(=O)Nc1c(C#N)cnc2ccc(NCc3cnc[nH]3)cc12 [Example 180, N-(6-((1H-imidazol-5-yl)methylamino)-3-cyanoquinolin-4-yl)-2-methylpropane-2-sulfonamide] | > 40 |
| N#Cc1cnc2ccc(NCc3cccc[n+]3[O-])cc2c1Nc1ccc(F)c(Cl)c1 [Example 39, 4-(3-Chloro-4-fluoro-phenylamino)-6-[(1-oxy-pyridin-2-ylmethyl)-amino]-quinoline-3-carbonitrile] | 0.011 |
| N#Cc1cnc2ccc(NCc3ccc([N+](=O)[O-])o3)cc2c1Nc1ccc(F)c(Cl)c1 [Example 11, 4-(3-Chloro-4-fluoro-phenylamino)-6-[(5-nitro-furan-2-ylmethyl)-amino]-quinoline-3-carbonitrile] | 0.123 |
| COCCOc1ccc(CNc2ccc3ncc(C#N)c(Nc4ccc(F)c(Cl)c4)c3c2)cc1C#N [Example 25, 4-(3-Chloro-4-fluoro-phenylamino)-6-[3-cyano-4-(2-methoxy-ethoxy)-benzylamino]-quinoline-3-carbonitrile] | 0.082 |
| N#Cc1cnc2c(Cl)cc(NCc3cn(C4CCC(O)(c5ccccn5)CC4)nn3)cc2c1Nc1ccc(F)c(Cl)c1 (stereo not shown) [Example 335, 8-chloro-4-[(3-chloro-4-fluorophenyl)amino]-6-({[1-(4-hydroxy-4-pyridin-2-ylcyclohexyl)-1H-1,2,3-triazol-4-yl]methyl}amino)quinoline-3-carbonitrile] | 0.02 |
| CN(C)C(=O)c1cc(NCc2cccc(C#N)c2)cc2c(Nc3ccc(F)c(Cl)c3)c(C#N)cnc12 [Example 85, 4-(3-chloro-4-fluorophenylamino)-3-cyano-6-(3-cyanobenzylamino)-N,N-dimethylquinoline-8-carboxamide] | 0.67 |
| Cc1ncc(CNc2cc(Br)c3ncc(C#N)c(Nc4ccc(F)c(Cl)c4)c3c2)[nH]1 [Example 105, 8-bromo-4-(3-chloro-4-fluorophenylamino)-6-((2-methyl-1H-imidazol-5-yl)methylamino)quinoline-3-carbonitrile] | 0.17 |
| CN(C)C(=O)c1cc(NCc2ccn[nH]2)cc2c(Nc3ccc(F)c(Cl)c3)c(C#N)cnc12 [Example 89, 6-((1H-pyrazol-5-yl)methylamino)-4-(3-chloro-4-fluorophenylamino)-3-cyano-N,N-dimethylquinoline-8-carboxamide] | 0.29 |
| Cc1cc(N)cc2c(Nc3cccc(Br)c3)c(C#N)cnc12 [Example 125, 6-amino-4-(3-bromophenylamino)-8-methylquinoline-3-carbonitrile] | 11 |
| CNc1nc(SC)ncc1CNc1cc(Cl)c2ncc(C#N)c(Nc3ccc(F)c(Cl)c3)c2c1 [Example 280, 8-chloro-4-[(3-chloro-4-fluorophenyl)amino]-6-({[4-(methylamino)-2-(methylthio)pyrimidin-5-yl]methyl]amino)quinoline-3-carbonitrile] | > 40 |

Same assay, conditions: Table 2; Tpl2/Cot kinase, GST-MEK1 substrate, 50 uM ATP

| SMILES | IC50 [µM] |
| --- | --- |
| Cc1[nH]c(-c2cccnc2)nc1CNc1cc(Cl)c2ncc(C#N)c(Nc3ccc(F)c(Cl)c3)c2c1 [Example 444] | 20.6 |
| N#Cc1cnc2c(Cl)cc(NCc3cn(CCCN4CCCNCC4)nn3)cc2c1Nc1ccc(F)c(Cl)c1 [Example 595] | 0.074 |
| CC(CNc1cc(Cl)c2ncc(C#N)c(Nc3ccc(F)c(Cl)c3)c2c1)c1ccncc1 (stereo not shown) [Example 639] | 0.2 |
| CC(C)N1CCC(CCn2cc(CNc3cc(Br)c4ncc(C#N)c(Nc5ccc(F)c(Cl)c5)c4c3)nn2)CC1 [Example 569] | 0.057 |
| N#Cc1cnc2c(Br)cc(NCc3n[nH]c4c3CCCC4)cc2c1Nc1ccc(F)c(Cl)c1 [Example 448] | 0.37 |
| N#Cc1cnc2ccc(NCc3cccc(C(=O)O)c3)cc2c1Nc1ccc(F)c(Cl)c1 [Example 398] | 0.18 |
| N#Cc1cnc2c(Br)cc(NCc3cnn(-c4ccccc4)n3)cc2c1Nc1ccc(F)c(Cl)c1 [Example 434] | > 40 |
| N#Cc1cncc(-c2ccccc2NCc2cnc[nH]2)c1Nc1ccc(F)c(Cl)c1 [Example 534] | > 3 |
| Cn1nccc1CNc1cc(Br)c2ncc(C#N)c(Nc3ccc(F)c(Cl)c3)c2c1 [Example 446] | 0.098 |
| Cn1ncc(Br)c1CNc1cc(Br)c2ncc(C#N)c(Nc3ccc(F)c(Cl)c3)c2c1 [Example 456] | 1 |
| N#Cc1cnc2ccc(NCCN3CCOCC3)cc2c1NC1CCCC1 [Example 419] | 19.7 |
| CCN(C[C@@H]1CCCN1C(=O)OC(C)(C)C)c1cc(Cl)c2ncc(C#N)c(Nc3ccc(F)c(Cl)c3)c2c1 [Example 623] | > 3 |
| N#Cc1cnc2c(Cl)cc(NC3CCCC3N=[N+]=[N-])cc2c1Nc1ccc(F)c(Cl)c1 (stereo not shown) [Example 629] | 0.42 |

Same assay, conditions: Tpl2/Cot kinase, GST-MEK1 substrate, 50 uM ATP

| SMILES | IC50 [µM] |
| --- | --- |
| N#Cc1cnc2c(Cl)cc(NCc3cn(C[C@H]4CCCN4)nn3)cc2c1Nc1ccc(F)c(Cl)c1 [Example 889] | 0.0084 |
| CN(C)CCC(c1cccnc1)n1cc(CNc2cc(Cl)c3ncc(C#N)c(Nc4ccc(F)c(Cl)c4)c3c2)nn1 (stereo not shown) [Example 759] | 0.036 |
| CCN1CCC(CCn2cc(CNc3cc(Br)c4ncc(C#N)c(Nc5ccc(F)c(Cl)c5)c4c3)nn2)CC1 [Example 737] | 0.064 |
| N#Cc1cnc2c(Cl)cc(NCC(O)CO)cc2c1Nc1ccc(F)c(Cl)c1 (stereo not shown) [Example 797] | 0.59 |
| N#Cc1cnc2ccc(NC3CCN(Cc4ccccc4)CC3)cc2c1Nc1ccc(F)c(Cl)c1 [Example 657] | 1.7 |
| CC(C)CN(CCCn1cc(CNc2cc(Cl)c3ncc(C#N)c(Nc4ccc(F)c(Cl)c4)c3c2)nn1)CC(C)C [Example 913] | 0.045 |
| N#Cc1cnc2c(Cl)cc(NCCNS(=O)(=O)Cc3ccccn3)cc2c1Nc1ccc(F)c(Cl)c1 [Example 857] | 0.67 |
| N#Cc1cnc2c(Cl)cc(NCc3cn(CCCO)nn3)cc2c1Nc1ccc(F)c(Cl)c1 [Example 751] | 0.0036 |
| CN1CCN(CCCn2cc(CNc3cc(Cl)c4ncc(C#N)c(Nc5ccc(F)c(Cl)c5)c4c3)nn2)CC1 [Example 796] | 0.039 |
| N#Cc1cnc2c(Cl)cc(NCc3cn(C[C@@H]4CCCN4)nn3)cc2c1Nc1ccc(F)c(Cl)c1 [Example 890] | 0.0076 |
| CSCn1cc(CNc2cc(Br)c3ncc(C#N)c(Nc4ccc(F)c(Cl)c4)c3c2)nn1 [Example 705] | 0.012 |
| COCCNC(=O)Cn1cc(CNc2cc(Cl)c3ncc(C#N)c(Nc4ccc(F)c(Cl)c4)c3c2)nn1 [Example 816] | 0.015 |
| N#Cc1cnc2c(Cl)cc(NCc3cn(CCCNS(=O)(=O)C(F)(F)F)nn3)cc2c1Nc1ccc(F)c(Cl)c1 [Example 906] | 0.0013 |
| CCN(CC1CCN(C(=O)c2cccnc2)CC1)c1cc(Cl)c2ncc(C#N)c(Nc3ccc(F)c(Cl)c3)c2c1 [Example 848] | 0.38 |
| CC(C)(C)OC(=O)N1CCCC1Cn1cc(CNc2cc(Cl)c3ncc(C#N)c(Nc4ccc(F)c(Cl)c4)c3c2)nn1 (stereo not shown) [Example 716] | 0.32 |

Same assay, conditions: Tpl2/Cot kinase, GST-MEK1 substrate, 50 uM ATP, 1 h at 30° C.; Table 2

| SMILES | IC50 [µM] |
| --- | --- |
| COC(=O)N1CCC(n2cc(CN(C(=O)OC)c3cc(Cl)c4ncc(C#N)c(Nc5ccc(F)c(Cl)c5)c4c3)nn2)CC1 [Example 981] | 0.61 |
| CC(=O)N1CCC(n2cc(CNc3cc(Cl)c4ncc(C#N)c(Nc5ccc(F)c(Cl)c5)c4c3)nn2)CC1 [Example 930] | 0.0033 |
| N#Cc1cnc2c(Cl)cc(NCc3cn(C4CCCN(CCF)CC4)nn3)cc2c1Nc1ccc(F)c(Cl)c1 (stereo not shown) [Example 1011] | 0.0091 |
| CC(C)N1C2CCC1CC(n1cc(CNc3cc(Cl)c4ncc(C#N)c(Nc5ccc(F)c(Cl)c5)c4c3)nn1)C2 (stereo not shown) [Example 1049] | 0.42 |
| N#Cc1cnc2c(Cl)cc(NCc3cn(C4CCNCC4)nn3)cc2c1NC1CCCC2(CCCC2)C1 (stereo not shown) [Example 979] | 0.97 |
| CCN1CCN(CCn2cc(CNc3cc(Cl)c4ncc(C#N)c(Nc5ccc(F)c(Cl)c5)c4c3)nn2)CC1 [Example 964] | 0.26 |
| CCCN1C2CCC1CC(n1cc(CNc3cc(Cl)c4ncc(C#N)c(Nc5ccc(F)c(Cl)c5)c4c3)nn1)C2 (stereo not shown) [Example 1055] | 0.008 |
| CC(=O)N1C2CCC1CC(n1cc(CNc3cc(Cl)c4ncc(C#N)c(Nc5ccc(F)c(Cl)c5)c4c3)nn1)C2 (stereo not shown) [Example 1053] | 0.024 |
